In patent US20250059184A1 (priority 2021, published 2025):

Legend:
mice = conditions: mouse, in vivo; cited from earlier work
5HT2A sensor [1] = conditions: cited from earlier work
5HT2A sensor [2] = conditions: cited from earlier work; remark: listed apart in the source
5-HT2A [3] = target: T1, 5-HT2A (Homo sapiens, UniProt P28223); assay: Serotonin 5-HT2A in vitro cellular IPOne agonism assay (HTRF); type: cell-based; set-up: host or cells: CHO-K1; conditions: CHO-K1 cells, agonist mode
Experimental: (§1) Serotonin 5-HT2A In Vitro Cellular IPOne Agonism Assay. The 5-HT2A IPOne HTRF assay was performed at Epics Therapeutics S.A. (Belgium, FAST-0505I) using conventional methods. Briefly, CHO-K1 cells expressing human recombinant 5-HT2A receptor grown to mid-log phase in culture media without antibiotics were detached with PBS-EDTA, centrifuged, and resuspended in medium without antibiotics buffer. 20,000 cells were distributed in a 96 well plate and incubated overnight at 37° C. with 5% Co2.
For agonist testing, the medium was removed and 20 μl of assay buffer plus 20 μl of test compound or reference agonist were added in each well. The plate was incubated for 60 min. at 37° C. with 5% CO2.
(§2) After addition of the lysis buffer containing IP1-d2 and anti-IP1 cryptate detection reagents, plates were incubated 1-hour at room temperature, and fluorescence ratios were measured according to the manufacturer specification, with the HTRF kit.

5-HT2A [4] = target: T1, 5-HT2A; assay: Serotonin 5-HT2A in vitro radioligand binding competition assay ([3H]-DOI); set-up: purchased Epics Therapeutics S.A. (Belgium) FAST-0505B; conditions: [3H]-DOI radiotracer, membrane extracts
Experimental: Serotonin 5-HT2A In Vitro Radioligand Binding Competition Assay. The 5-HT2A radioligand binding competition assay was performed at Epics Therapeutics S.A. (Belgium, FAST-0505B) using conventional methods. Briefly, competition binding was performed in duplicate in the wells of a 96 well plate (Master Block, Greiner, 786201) containing binding buffer (optimized for each receptor), membrane extracts (amount of protein/well optimized for each receptor), radiotracer [^3H]-DOI (final concentration optimized for each receptor) and test compound. Nonspecific binding was determined by co-incubation with 200-fold excess of cold competitor. The samples were incubated in a final volume of 0.1 ml at a temperature and for a duration optimized for each receptor and then filtered over filter plates. Filters were washed six times with 0.5 ml of ice-cold washing buffer (optimized for each receptor) and 50 μl of Microscint 20 (Packard) were added in each well. The plates were incubated 15 min on an orbital shaker and then counted with a TopCount™ for 1 min/well.

5-HT2A [5] = target: T1, 5-HT2A; assay: Serotonin 5-HT2A in vitro cellular IPOne antagonism assay (HTRF); type: cell-based; set-up: host or cells: CHO-K1; conditions: CHO-K1 cells, reference agonist α-Me-5HT; read-out: 5-HT2A IPOne Antagonist Activity
Experimental: as §1, with “Antagonism” for “Agonism”, “FAST-O0505) in antagonism mode” for “FAST-0505I)”
For antagonist testing, a reference agonist α-Me-5HT was added and fluorescence signal monitored for several minutes, followed by addition of 20 μl of assay buffer plus 20 μl of test compound or reference antagonist ketanserin, in each well. The plate was incubated for 60 min. at 37° C. with 5% CO2.
as §2

T1 sequence (P28223 whole entry): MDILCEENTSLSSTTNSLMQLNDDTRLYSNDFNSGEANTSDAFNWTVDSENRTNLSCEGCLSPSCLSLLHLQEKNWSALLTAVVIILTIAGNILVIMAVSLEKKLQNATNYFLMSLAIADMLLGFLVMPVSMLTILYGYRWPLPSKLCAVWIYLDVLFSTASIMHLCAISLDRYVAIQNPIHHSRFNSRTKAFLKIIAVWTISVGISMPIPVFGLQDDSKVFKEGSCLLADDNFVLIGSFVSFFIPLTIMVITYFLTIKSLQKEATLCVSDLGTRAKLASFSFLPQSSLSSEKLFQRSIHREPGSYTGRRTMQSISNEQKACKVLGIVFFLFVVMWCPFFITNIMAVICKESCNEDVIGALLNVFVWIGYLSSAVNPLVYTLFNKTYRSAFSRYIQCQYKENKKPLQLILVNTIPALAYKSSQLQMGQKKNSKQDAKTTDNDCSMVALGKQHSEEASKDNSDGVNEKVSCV

Compound | head-twitch response (HTR) (mice) | activation of the 5HT2A sensor assay in agonist mode (5HT2A sensor [1]) | competition with 5-HT in the 5HT2A sensor assay in antagonist mode (5HT2A sensor [2]) | EC50 (5-HT2A [3]) | IC50 (5-HT2A [4]) | IC50 (5-HT2A [5])
5-MeO-DMT [Compound 5-MeO-DMT] | robust, dose-dependent head-twitch response | activate the 5HT2A sensor assay in agonist mode | – | – | – | –
6-F-DET [Compound 6-F-DET] | – | do not activate the 5HT2A sensor assay in agonist mode | can compete with 5HT binding to 5HT2A | – | – | –
6-MeO-DMT [Compound 6-MeO-DMT] | does not produce a HTR | do not activate the 5HT2A sensor assay in agonist mode | compete off 5-HT | – | – | –
CC(Cc1ncc2ccccn12)N(C)C (centres unmarked) [Compound 15, 1-(imidazo [1,5-a]pyridin-3-yl)-N,N-dimethylpropan-2-amine] | – | – | – | > 10000 nM | 1000 to 10000 nM | 1000 to 10000 nM
CC(Cc1ncc2cc(F)ccn12)N(C)C (centres unmarked) [Compound 17, 1-(7-fluoroimidazo[1,5-a]pyridin-3-yl)-N,N-dimethylpropan-2-amine] | – | – | – | > 10000 nM | 101 to 1000 nM | 101 to 1000 nM
CN(C)C(C)(C)Cc1ncc2ccccn12 [Compound 19, 1-(imidazo [1,5-a]pyridin-3-yl)-N,N,2-trimethylpropan-2-amine] | – | – | – | > 10000 nM | 1000 to 10000 nM | 1000 to 10000 nM
CC(C)NC(C)Cc1ncc2ccccn12 (centres unmarked) [Compound 26, 1-(imidazo [1,5-a]pyridin-3-yl)-N-isopropylpropan-2-amine] | – | – | – | > 10000 nM | 101 to 1000 nM | 101 to 1000 nM
CC(Cc1ncc2ccccn12)N1CCCC1 (centres unmarked) [Compound 27, 3-(2-(pyrrolidin-1-yl)propyl)imidazo[1,5-a]pyridine] | – | – | – | > 10000 nM | 1000 to 10000 nM | 1000 to 10000 nM
C[C@H](Cc1ncc2ccccn12)N(C)C [Compound 30, (R)-1-(imidazo[1,5-a]pyridin-3-yl)-N,N-dimethylpropan-2-amine] | – | – | – | > 10000 nM | 101 to 1000 nM | 1000 to 10000 nM
CN1CCCC1Cc1ncc2ccccn12 (centres unmarked) [Compound 31, 3-((1-Methylpyrrolidin-2-yl)methyl)imidazo[1,5-a]pyridine] | – | – | – | > 10000 nM | 1000 to 10000 nM | 101 to 1000 nM
CN1CCC(c2ncc3ccccn23)C1 (centres unmarked) [Compound 32, 3-(1-methylpyrrolidin-3-yl)imidazo[1,5-a]pyridine] | – | – | – | > 10000 nM | 101 to 1000 nM | 1000 to 10000 nM
CN(C)CCc1ncn2ccccc12 [Compound 43, 2-(imidazo [1,5-a]pyridin-1-yl)-N,N-dimethylethan-1-amine] | – | – | – | > 10000 nM | 1000 to 10000 nM | 101 to 1000 nM
CC(Cc1ncn2ccccc12)N(C)C (centres unmarked) [Compound 44, 1-(imidazo [1,5-a]pyridin-1-yl)-N,N-dimethylpropan-2-amine] | – | – | – | > 10000 nM | 1000 to 10000 nM | 101 to 1000 nM
CN(C)CCc1c[nH]c2ccccc12 [DMT, N,N-dimethyltryptamine] | – | activate the 5HT2A sensor assay in agonist mode | – | – | – | –
O=C(c1ccc(F)cc1)C1CCN(CCn2c(=O)[nH]c3ccccc3c2=O)CC1 [Ketanserin] | – | do not activate the 5HT2A sensor assay in agonist mode | can compete with 5HT binding to 5HT2A | – | – | –
BOL148 | – | do not activate the 5HT2A sensor assay in agonist mode | can compete with 5HT binding to 5HT2A | – | – | –
L-MDMA | – | do not activate the 5HT2A sensor assay in agonist mode | – | – | – | –
R-MDMA | – | do not activate the 5HT2A sensor assay in agonist mode | – | – | – | –
